What all share (format): in vivo
One assay deals with ZEAMA = Zea mays (maize). Put plainly: Post-emergence treatment, safening by (Ib), visual injury score in maize (Table 1). As for the experimental part: 3.2 Effect of the Herbicide and Effect of the Safener when Applied Pre-Emergence Seeds or rhizome pieces of mono- and dicotyledenous harmful plants and of crop plants are placed in sandy loam soil in plastic pots, covered with soil and cultivated in a greenhouse under good growth conditions. Alternatively, harmful plants encountered in paddy rice cultivation are cultivated in pots where the water level is up to 2 cm above the soil surface. Three weeks after sowing, the test plants are treated at the three-leaf stage. […] In a series of trials the ability of herbicides to be […] by safener (Ib) was evaluated.

The subject of assay [1] is TRZAS, Triticum aestivum (wheat). The assay can be described thus: Pre-emergence application of herbicide-safener combination, visual injury score in wheat (Table 2). The following applies: application rate 300 g a.i./ha. As for the experimental part:
(§1) The damage to the plants is assessed visually on a scale of 0–100% in comparison with control plants: • 0%=no noticeable effect in comparison with the untreated plant • 100%=the treated plant dies off. 3.2 Effect of the Herbicide and Effect of the Safener when Applied Pre-Emergence
(§2) Seeds or rhizome pieces of mono- and dicotyledonous harmful plants and of crop plants are placed in sandy loam soil in plastic pots of a diameter of 9 cm and covered with soil. Alternatively, harmful plants encountered in paddy rice cultivation are cultivated in water-saturated soil, where the amount of water poured into the pots is such that the water level is at the soil surface, or some millimeters above the soil surface. The herbicide/safener active compound combinations according to the invention, formulated in the form of emulsion concentrates, and, in parallel tests, the correspondingly formulated individual active compounds are then applied as emulsions to the surface of the soil cover in various dosages using an amount of water of 300 l/ha (converted), or, in the case of rice, are poured into the irrigation water. After the treatment, the pots are placed in a greenhouse and kept under good growth conditions for the weeds. […]

The subject of assay [2] is HORVS = Hordeum vulgare (barley). The assay can be described thus: Pre-emergence application of herbicide-safener combination, visual injury score in barley (Table 3). The following applies: application rate 300 g a.i./ha (herbicide alone). As to the method: as §1, §2

The structures appear in SMILES notation.

`CCOc1nc(F)cc2nc(S(=O)(=O)Nc3c(Cl)cccc3C(=O)OC)nn12` [(B1-2), methyl 3-chloro-(5-ethoxy-7-fluoro[1,2,4]triazole-[1,5-c]pyrimidin-2-ylsulfonamido)-benzoate]: in the assay on ZEAMA = Zea mays (maize) (application rate 30 g a.i./ha), the “% injury to ZEAMA” value amounted to 32%.
Consider `Nc1c(Cl)c(F)nc(OCC(=O)O)c1Cl` [(B2-4), 4-amino-3,5-dichloro-6-fluoro-2-pyridyloxyacetic acid], for which the “% injury to ZEAMA” value with ZEAMA = Zea mays (maize) (application rate 160 g a.i./ha) was 9%.
Turning to `CSc1nnc(C(C)(C)C)c(=O)n1N` [(B3-1), 4-amino-6-tert-butyl-4,5-dihydro3-methylthio-1,2,4-triazin-5-one], the “% injury to ZEAMA” value in the assay on ZEAMA = Zea mays (maize) (application rate 560 g a.i./ha) was 23%.
As for `COc1ncc(F)c2nc(S(=O)(=O)Nc3c(F)cccc3F)nn12` [(B1-1), N-(2,6difluorophenyl)-8-fluoro-5-methoxy-1,2,4-triazolo[1,5-c]pyrimidin-2-sulfonamide], the “% injury to ZEAMA” value in the assay with ZEAMA = Zea mays (maize) (application rate 10 g a.i./ha) stood at 18%.
With `O=C(O)COc1nc(Cl)c(Cl)cc1Cl` [(B2-3), 3,5,6-trichloro-2-pyridyloxyacetic acid], the “% injury to ZEAMA” value in the assay on ZEAMA = Zea mays (maize) (application rate 420 g a.i./ha) is on record as 22%.
`CCOC(=O)C(Cl)Cc1cc(-n2nc(C)n(C(F)F)c2=O)c(F)cc1Cl` (racemic) [(B4-1), ethyl (RS)-2-chloro-3-[2-chloro-5-(4-difluoromethyl-4,5-dihydro-3-methyl-5-oxo-1H-1,2,4-triazol-1-yl)-4-fluorophenyl]propionate]: the “% injury to ZEAMA” value with ZEAMA = Zea mays (maize) (application rate 36 g a.i./ha) is recorded as 11%.
With `CCc1cccc(C)c1N(C(=O)CCl)[C@@H](C)COC` [(B5-1)], the “% injury to TRZAS” value in assay [1] worked out at 70%. For the same compound, in assay [2], the “% injury to HORVS” value worked out at 15%.

The values above are taken from patent US7098169B2, “Herbicide-safener combination based on isoxazoline carboxylate safeners” (Bayer CropScience GmbH, priority 2001, dated 2006).
